Results from US4880789A, “2'-Substituted-4-deoxy-thiazolo(5,4-c)-rifamycin SV derivatives” (Gruppo Lepetit S.P.A., priority 1985, dated 1989).
≈ marks a conversion by molar mass, not a printed value. Where two headings read alike, the source gives them in different places.

What was measured:
[1] = test system: Klebsiella pneumoniae ISM; experiment: MIC, two-fold dilution microtiter, K. pneumoniae ISM; format: cell-based
S. pneumoniae UC 41 = experiment: MIC, two-fold dilution microtiter, S. pneumoniae UC 41; format: cell-based; details: 18-24 h, 37° C
S. faecalis ATCC 7080 = experiment: MIC, two-fold dilution microtiter, S. faecalis ATCC 7080; format: cell-based; details: 37° C
S. aureus tour L 165 [2] = experiment: experimental septicemia in mice (S. aureus); format: in vivo; details: Staphylococcus aureus, once daily for three days, survival on 10th day
Protocol: The antimicrobial activity of the compounds of the invention is also confirmed in "in vivo" tests. The animals (groups of five mice) were infected by intraperitoneal injection of 16-hour broth culture of S. aureus tour L 165. Inocula were adjusted so that untreated animals died of septicemia within 48 hours. Animals were treated once daily for three days starting immediately after infection. On the 10th day the value for the ED50 in mg/kg/day was calculated by the method of […]-KARBER (Finney, D. J., Statistical method in biological assay, page 524. C. Griffin Ltd., London, 1952), on the basis of the percentage of surviving animals at each dose.

[3] = test system: Pseudomonas aeruginosa ATCC 10145; experiment: MIC, two-fold dilution microtiter, P. aeruginosa ATCC 10145; format: cell-based; details: P. aeruginosa ATCC 10145, Iso-Sensitest broth, 18-24 h, 37° C
S. aureus TOUR L 1282 = experiment: MIC, two-fold dilution microtiter, rifampicin resistant S. aureus TOUR L 1282; format: cell-based; details: Staphylococcus aureus, TOURL1282, rifampicin resistant strain
[4] = test system: Staphylococcus aureus ATCC 6538; experiment: MIC, two-fold dilution microtiter, S. aureus ATCC 6538; format: cell-based
S. aureus TOUR L 165 [5] = experiment: MIC, two-fold dilution microtiter, S. aureus TOUR L 165; format: cell-based, Staphylococcus aureus
[6] = test system: Proteus vulgaris XI9H ATCC 881; experiment: MIC, two-fold dilution microtiter, P. vulgaris; format: cell-based; details: P. vulgaris XI9H ATCC 881, Iso-Sensitest broth, 18-24 h, 37° C
[7] = test system: Mycobacterium tuberculosis H37RV ATCC 9360; experiment: MIC, M. tuberculosis H37RV, Kirschner medium; format: cell-based; details: 10% horse serum, 7 days, 37° C
Protocol: (§1) The minimum inhibitory concentration (MIC) of representative compounds of the invention was determined using two-fold dilution method in microtiter system. The media used were: Todd-Hewitt broth (Difco) for steptococci; Iso-Sensitest broth (Oxoid) for staphylococci and gram-negative bacteria. The final inoculum was about 10^4 cfμ/ml. […] For M. tuberculosis H37 RV the inoculum consisted of 0.5-1% of a 7-9 day culture in Dubos medium. The tests were carried out in Kirschner medium supplemented with 10% horse serum. Observations were made after 7-days incubation at 37° C.

[8] = test system: Escherichia coli SKF 12140; experiment: MIC, two-fold dilution microtiter, E. coli SKF 12140; format: cell-based; details: 18-24 h, 37° C
[9] = test system: Streptococcus pyogenes C203; experiment: MIC, two-fold dilution microtiter, S. pyogenes C203; format: cell-based; details: Todd-Hewitt broth, 18-24 h, 37° C
Protocol: as §1

[10] = Klebsiella pneumoniae, K. pneumoniae ISM, Iso-Sensitest broth, 18-24 h, 37° C, read-out: MIC
[11] = Streptococcus pneumoniae, UC41, Todd-Hewitt broth, read-out: MIC
[12] = Enterococcus faecalis, ATCC7080, 18-24 h, read-out: MIC
[13] = Pseudomonas aeruginosa, ATCC10145, read-out: MIC
[14] = Staphylococcus aureus, ATCC6538, S. aureus ATCC 6538, Iso-Sensitest broth, 18-24 h, 37° C, read-out: MIC
[15] = Staphylococcus aureus, TOURL165, S. aureus TOUR L 165, Iso-Sensitest broth, 18-24 h, 37° C, read-out: MIC
[16] = Staphylococcus aureus, TOURL165, S. aureus TOUR L 165, supplemented with 30% bovine serum, read-out: MIC
[17] = Proteus vulgaris, ATCC881, read-out: MIC
[18] = Mycobacterium tuberculosis, 168 h, read-out: MIC
[19] = Escherichia coli, SKF12140, Iso-Sensitest broth, read-out: MIC
[20] = Streptococcus pyogenes, read-out: MIC
[21] = S. aureus TOUR L 165, supplemented with 30% bovine serum

Compound | MIC [1, 10] [µg/mL] | MIC (S. pneumoniae UC 41; [11]) [µg/mL] | MIC (S. faecalis ATCC 7080; [12]) [µg/mL] | ED50 (S. aureus tour L 165 [2]; TOURL165, 240 h, sc) [mg/kg] | ED50 (S. aureus tour L 165 [2]; TOURL165, po, 240 h, os) [mg/kg] | MIC [3, 13] [µg/mL] | MIC (S. aureus TOUR L 1282) [µg/mL] | MIC [4, 14] [µg/mL] | MIC (S. aureus TOUR L 165 [5]; [15]) [µg/mL] | MIC (S. aureus TOUR L 165 [5]; [16]) [µg/mL] | MIC [6, 17] [µg/mL] | MIC [7, 18] [µg/mL] | MIC [8, 19] [µg/mL] | MIC [9, 20] [µg/mL] | also measured
COC1C=COC2(C)Oc3c(C)c(O)c4c(O)c(c5sc(N6CCN(CCO)CC6)nc5c4c3C2=O)NC(=O)C(C)=CC=CC(C)C(O)C(C)C(O)C(C)C(OC(C)=O)C1C (centres unmarked) [Example 3c, 2'-[4"(2'"-hydroxyethyl)-1"-piperazinyl]rifamycin P] | 32 (≈ 36.9 µM) | 0.008 (≈ 0.00923 µM) | 4 (≈ 4.61 µM) | 3.3 | > 20 | 128 (≈ 148 µM) | 64 (≈ 73.8 µM) | 0.008 (≈ 0.00923 µM) | 0.016 (≈ 0.0185 µM) | 0.032 (≈ 0.0369 µM) | 16 (≈ 18.5 µM) | 4 (≈ 4.61 µM) | 8 (≈ 9.23 µM) | 0.016 (≈ 0.0185 µM) | 
COC1C=COC2(C)Oc3c(C)c(O)c4c(O)c(c5sc(N6CCN(C)CC6)nc5c4c3C2=O)NC(=O)C(C)=CC=CC(C)C(O)C(C)C(O)C(C)C(OC(C)=O)C1C (centres unmarked) [Example 3a, 2'-(4"-Methyl-1"-piperazinyl) rifamycin P] | 32 (≈ 38.2 µM) | 0.032 (≈ 0.0382 µM) | 2 (≈ 2.39 µM) | 0.16 | 0.36 | 16 (≈ 19.1 µM) | 32 (≈ 38.2 µM) | 0.001 (≈ 0.00119 µM) | 0.004 (≈ 0.00478 µM) | 0.004 (≈ 0.00478 µM) | 8 (≈ 9.56 µM) | 1 (≈ 1.19 µM) | 16 (≈ 19.1 µM) | 0.032 (≈ 0.0382 µM) | 
COC1C=COC2(C)Oc3c(C)c(O)c4c(O)c(c5sc(N6CCN(Cc7ccccc7)CC6)nc5c4c3C2=O)NC(=O)C(C)=CC=CC(C)C(O)C(C)C(O)C(C)C(OC(C)=O)C1C (centres unmarked) [Example 1d, 2'(4"-phenylmethyl-1"-piperazinyl) rifamycin P] | 64 (≈ 70.1 µM) | 0.064 (≈ 0.0701 µM) | 1 (≈ 1.1 µM) |  |  | 16 (≈ 17.5 µM) | > 128 | 0.004 (≈ 0.00438 µM) | 0.008 (≈ 0.00876 µM) | 0.016 (≈ 0.0175 µM) | 32 (≈ 35 µM) | 0.125 (≈ 0.137 µM) | 32 (≈ 35 µM) | 0.064 (≈ 0.0701 µM) | 
COc1ccc(N2CCN(c3nc4c(s3)c3c(O)c5c(O)c(C)c6c(c54)C(=O)C(C)(OC=CC(OC)C(C)C(OC(C)=O)C(C)C(O)C(C)C(O)C(C)C=CC=C(C)C(=O)N3)O6)CC2)cc1 (centres unmarked) [Example 3e, 2'-[4"(4'"-methoxyphenyl)-1-piperazinyl]rifamycin P] |  | 0.064 (≈ 0.0689 µM) | 4 (≈ 4.31 µM) | 0.63 | 1.9 | 8 (≈ 8.61 µM) | > 128 | 0.064 (≈ 0.0689 µM) | 0.064 (≈ 0.0689 µM) | 0.5 (≈ 0.538 µM) | 64 (≈ 68.9 µM) | 0.25 (≈ 0.269 µM) | 8 (≈ 8.61 µM) | 0.125 (≈ 0.135 µM) | MIC ([1]; Klebsiella pneumoniae): > 128 µg/mL
COC1C=COC2(C)Oc3c(C)c(O)c4c(O)c(c5sc(N6CCNCC6)nc5c4c3C2=O)NC(=O)C(C)=CC=CC(C)C(O)C(C)C(O)C(C)C(OC(C)=O)C1C (centres unmarked) [Example 4, 2'-(1"-Piperazinyl) rifamycin P] | 16 (≈ 19.4 µM) | 0.064 (≈ 0.0778 µM) | 2 (≈ 2.43 µM) |  |  | 16 (≈ 19.4 µM) | > 128 |  |  |  | 8 (≈ 9.72 µM) |  | 8 (≈ 9.72 µM) | 0.125 (≈ 0.152 µM) | MIC ([4]; Staphylococcus aureus, ATCC6538): 0.125 µg/mL (≈ 0.152 µM); MIC (S. aureus TOUR L 165 [5]; [21]): 0.125 µg/mL (≈ 0.152 µM); MIC (S. aureus TOUR L 165 [5]; Staphylococcus aureus, TOURL165): 0.125 µg/mL (≈ 0.152 µM)
COC1C=COC2(C)Oc3c(C)c(O)c4c(O)c(c5sc(N6CCCC6)nc5c4c3C2=O)NC(=O)C(C)=CC=CC(C)C(O)C(C)C(O)C(C)C(OC(C)=O)C1C (centres unmarked) [Example 1a, 2'-(1"-PyrrolidinyL) rifamycin P] | 32 (≈ 39.6 µM) | 0.032 (≈ 0.0396 µM) | 2 (≈ 2.48 µM) |  |  | 8 (≈ 9.9 µM) | > 128 | 0.016 (≈ 0.0198 µM) | 0.004 (≈ 0.00495 µM) | 0.016 (≈ 0.0198 µM) | 16 (≈ 19.8 µM) | 2 (≈ 2.48 µM) | 16 (≈ 19.8 µM) | 0.008 (≈ 0.0099 µM) | 
CCN(CC)c1nc2c(s1)c1c(O)c3c(O)c(C)c4c(c32)C(=O)C(C)(OC=CC(OC)C(C)C(OC(C)=O)C(C)C(O)C(C)C(O)C(C)C=CC=C(C)C(=O)N1)O4 (centres unmarked) [Example 5, 2'-(N,N-diethylamino) rifamycin P] | 64 (≈ 79 µM) | 0.032 (≈ 0.0395 µM) | 1 (≈ 1.23 µM) | 0.21 | 0.82 |  | > 128 | 0.032 (≈ 0.0395 µM) | 0.064 (≈ 0.079 µM) | 0.5 (≈ 0.617 µM) | 32 (≈ 39.5 µM) | 0.5 (≈ 0.617 µM) | 32 (≈ 39.5 µM) | 0.064 (≈ 0.079 µM) | 
2'(4"-phenylmethoxycarbonyl-1"-piperazinyl) rifamycin P [Example 1f] |  |  |  |  |  |  |  |  |  |  |  |  |  |  | MIC ([1]; K. pneumoniae ISM, Iso-Sensitest broth, 18-24 h, 37° C): > 128 µg/mL; MIC (S. pneumoniae UC 41; Todd-Hewitt broth): 0.064 µg/mL; MIC (S. faecalis ATCC 7080; 18-24 h): 2 µg/mL; MIC [3]: 32 µg/mL; MIC ([4]; S. aureus ATCC 6538, Iso-Sensitest broth, 18-24 h, 37° C): 0.064 µg/mL; MIC (S. aureus TOUR L 165 [5]; S. aureus TOUR L 165, Iso-Sensitest broth, 18-24 h, 37° C): 0.064 µg/mL; MIC (S. aureus TOUR L 165 [5]; [21]): 0.064 µg/mL; MIC [6]: 64 µg/mL; MIC [7]: 0.5 µg/mL; MIC ([8]; Iso-Sensitest broth): > 128 µg/mL; MIC [9]: 0.125 µg/mL
CCOC(=O)N1CCN(c2nc3c(s2)c2c(O)c4c(O)c(C)c5c(c43)C(=O)C(C)(OC=CC(OC)C(C)C(OC(C)=O)C(C)C(O)C(C)C(O)C(C)C=CC=C(C)C(=O)N2)O5)CC1 (centres unmarked) [Example 1e, 2'(4"-ethoxycarbonyl-1"-piperazinyl) rifamycin P] | 32 (≈ 35.8 µM) | 0.064 (≈ 0.0715 µM) | 4 (≈ 4.47 µM) |  |  | 32 (≈ 35.8 µM) | 128 (≈ 143 µM) | 0.032 (≈ 0.0358 µM) | 0.064 (≈ 0.0715 µM) | 0.064 (≈ 0.0715 µM) | 16 (≈ 17.9 µM) | 2 (≈ 2.23 µM) | 16 (≈ 17.9 µM) | 0.064 (≈ 0.0715 µM) | 
